Results reported in paper PMC4890880 (ACS infectious diseases, 2016).
Read-outs that look alike come from different tables or passages of the source.

Legend:
HepG2-A16-CD81EGFP cells [1] = experiment: cells; conditions: Homo sapiens, HepG2, read-out: % inhibition
HepG2-A16-CD81EGFP cells [2] = experiment: cells; conditions: Homo sapiens, HepG2, read-out: % inhibition; remark: listed apart in the source
[3] = test system: Plasmodium berghei (Pb-Luc) exoerythrocytic-stage parasites; experiment: microbe, parasite or virus in culture
[4] = read-out: Inhibition% @ 50 uM rep1
[5] = read-out: Inhibition% @ 50 uM rep2

| SMILES | inhibition at 50 µM (HepG2-A16-CD81EGFP cells [1]) [%] | inhibition at 50 µM (HepG2-A16-CD81EGFP cells [2]) [%] | inhibition at 50 µM [3, 4] [%] | inhibition at 50 µM [3, 5] [%] |
| --- | --- | --- | --- | --- |
| CCCCNCC(O)(c1ccc(Cl)cc1)c1ccc(Cl)cc1 [MMV665929] | 95.9 | 99.2 | 104 | 105 |
| COc1ccc(C(=O)Nc2nonc2-c2ccc(OC)c(OC)c2)cc1Cl [MMV011567] | -1.34 | 2.69 | 58 | 80 |
| Cc1ccc(Nc2nc(NCCO)c3ccccc3n2)cc1C [MMV001038] | 94.2 | 96.1 | 102 | 102 |
| CCOc1cccc(C(=O)Nc2ccc(-c3nc4ccccc4[nH]3)cc2)c1 [MMV019202] | 76.2 | 88.4 | 101 | 100 |
| CCOc1cc(Br)c(C(C)NC(=O)c2cccc(OC)c2)cc1OCC (stereo not drawn) [MMV665796] | 88.4 | 96.9 | 103 | 104 |
| CN1c2ccccc2N(C)C1c1ccc2c(c1)OCO2 [MMV666009] | 81.6 | 81 | 102 | 105 |
| Oc1ccccc1CN1CCN(C(c2ccccc2)c2ccccc2)CC1 [MMV011795] | 77.8 | 51.4 | 100 | 102 |
| COc1ccc(-c2nc(NC(=O)CS(=O)(=O)c3ccc(F)cc3)sc2C)cc1 [MMV665915] | 92.4 | 95.2 | 101 | 100 |
| O=C(CCc1ccco1)NC1CCN(CC2(c3ccc(Cl)cc3)CCC2)CC1 [MMV666108] | 54.1 | 67.1 | 101 | 102 |
| COc1ccccc1N1CCN(C(CNS(=O)(=O)c2ccc(Cl)cc2)c2cccnc2)CC1 (stereo not drawn) [MMV665914] | 49.3 | 59.7 | 96 | 96 |
| CCOc1cc2c(cc1OCC)C(c1cc(C)c(O)c(C)c1)NCC2 (stereo not drawn) [MMV000483] | 23 | 55.7 | 69 | 61 |
| CCOC(=O)c1c(C)n(-c2ccc(Cl)cc2)c2ccc(OC(=O)C=Cc3ccccc3)cc12 [MMV666600] | 70.5 | 68.1 | 104 | 104 |
| CN(C)c1ccc(C=Cc2nc(=O)c3ccccc3o2)cc1 [MMV006309] | 96.7 | 98.3 | 104 | 105 |
| COc1ccc(C=C2SC(=N)N(c3ccccc3OC)C2=O)cc1 [MMV666691] | 94.9 | 98.5 | 103 | 104 |
| Cc1cc(Nc2ccc3ccccc3c2)n2ncnc2n1 [MMV011099] | 88.4 | 86.3 | 101 | 102 |
| CC1CCN(Cc2ccc(NC(=O)c3cc4ccc5cccnc5c4[nH]3)cc2)CC1 [MMV020549] | 95.4 | 96.7 | 104 | 106 |
| CCOC(=O)C1=C(c2ccccc2)N=c2sc(=Cc3cc(C)n(-c4ccc(F)cc4)c3C)c(=O)n2C1c1cccc(OC)c1OC (stereo not drawn) [MMV666601] | -7.05 | 8.55 | 84 | 87 |
| Cc1c(C)n(CC(O)CNC2CCCCC2C)c2ccccc12 (stereo not drawn) [MMV665806] | 31.3 | 47.6 | 90 | 92 |

| SMILES | inhibition at 50 µM (HepG2-A16-CD81EGFP cells [1]) [%] | inhibition at 50 µM (HepG2-A16-CD81EGFP cells [2]) [%] | inhibition at 50 µM [3, 4] [%] | inhibition at 50 µM [3, 5] [%] |
| --- | --- | --- | --- | --- |
| FC(F)(F)c1cccc(Nc2nc(-c3ccccc3)nc3ncccc23)c1 [MMV665798] | 95.3 | 98.3 | 103 | 104 |
| COc1cccc(-c2nn(C)c3sc(C(=O)NCCN4CCN(c5ccccc5F)CC4)cc23)c1 [MMV019064] | 53.8 | 82.3 | 103 | 104 |
| CC1CN(C(=O)c2sc3ccccc3c2Cl)CC(C)O1 (stereo not drawn) [MMV020492] | 25 | 23.2 | 44 | 44 |
| CCOc1ccc(C2N(C)c3ccccc3N2C)cc1 [MMV075490] | 88 | 89.5 | 103 | 102 |
| Cc1cccc(Nc2nc(N)c3ccccc3n2)c1 [MMV019110] | 91.6 | 92 | 99 | 98 |
| CCc1c(C)c(=N)c2ccccc2n1C [MMV006278] | 71 | 77.8 | 100 | 101 |
| CSC1=NC(=Nc2c(C)cccc2C)C2(CCC(C(C)(C)C)CC2)N1c1ccc(Cl)cc1 (stereo not drawn) [MMV666596] | 88.7 | 89.2 | 104 | 106 |
| OC(CNC1CCCC1)Cn1c2ccccc2c2ccccc21 (stereo not drawn) [MMV000848] | 96.9 | 99.2 | 103 | 104 |
| CCOC(=O)c1ccc2nc(-c3ccccc3)cc(O)c2c1 [MMV006457] | 78.2 | 82.5 | 102 | 104 |
| Oc1ccccc1CN1CCC2(CCCN(Cc3ccccc3F)C2)C1 (stereo not drawn) [MMV666116] | 73.5 | 85.7 | 98 | 100 |
| COc1ccc2c(=O)cc(C(Cl)(Cl)Cl)oc2c1 [MMV665820] | 96.4 | 98.1 | 103 | 102 |
| CCCCc1ccc(NS(=O)(=O)c2cc3c4c(c2)CCN4C(=O)CC3)cc1 [MMV001255] | 67.8 | 77.1 | 98 | 92 |
| COc1cccc(O)c1CN1CCC2(CCCN(Cc3ccc(F)cc3)C2)C1 (stereo not drawn) [MMV666061] | 96.5 | 98.8 | 103 | 103 |
| CCN(Cc1ccccc1)C1CCN(Cc2cc(Br)ccc2O)CC1 [MMV019127] | 82.2 | 86 | 102 | 104 |
| COc1ccc(C2N(C)c3ccccc3N2C)cc1 [MMV666075] | 76.8 | 84.3 | 101 | 98 |
| CCN(CC)CCCNc1nc(-c2ccc(Cl)cc2)nc2ccccc12 [MMV665961] | 95 | 87.3 | 101 | 103 |
| COc1cccc(NC(=O)Cn2c(C)c(C#N)c3ccccc32)c1 [MMV665826] | 49.1 | 77.8 | 102 | 101 |
| COc1cc(SC)ccc1C(=O)N1CCCC(C)C1 (stereo not drawn) [MMV056726] | 65.4 | 67.3 | 86 | 93 |
